{"source": "patent US20170246189A1", "about": "“METHOD FOR TREATING UTERINE FIBROIDS” (LABORATOIRE HRA-PHARMA, priority 2008, published 2017)", "key": {"fibroid tissue [1]": {"tested_on": "fibroid tissue", "assay": "Gene expression profiling (Affymetrix microarray, RT-PCR) of fibroid tissue after 90 days treatment", "type": "in vivo, human (women)", "description": "(§1) Pre-menopausal women with symptomatic fibroids received ulipristal (10 or 20 mg; n=12) or placebo (PL) (n=6) in a blinded, randomized allocation, for 90 days before hysterectomy. No other hormonal therapy was given. Fibroid tissue and adjacent myometrium were collected at surgery and processed in RNAlater (for RNA isolation). Fibroid tissue also was processed for paraffin embedding (for immunohistochemisty (IHC) and TUNEL assay). Total RNA was used for Affymetrix microarray with the U133 Plus 2.0 human chip. Differential transcription of genes of interest was confirmed by RT-PCR analysis. The TUNEL assay and IHC for Ki67 and phosphorylaied histone 3 (phospho H3) were applied to paraffin embedded tissue sections, and the percentage of positive stained cells was noted to assess apoptosis and proliferation. RT-PCR results and proliferation assays were analyzed using two-tailed student t-test; Kruskal-Wallis test was used to assess TUNEL assay results; P<0.05 was considered significant."}, "uterine fibroids": {"tested_on": "uterine fibroids", "assay": "Randomized, placebo-controlled, double blinded, parallel trial: change in total fibroid volume by MR imaging", "type": "in vivo, human (women)", "conditions": "for reduction in fibroid volume: three months (90 days), placebo +6%", "text": "(§2) Healthy women aged 33-50 years with symptomatic fibroids and regular menstrual cycles were considered for enrollment.\n(§3) Inclusion criteria included regular cycles and contraceptive use, and symptomatic fibroids as defined by ACOG practice bulletin 1994: • Excessive uterine bleeding evidenced by either of the following: profuse bleeding with flooding or clots or repetitive periods lasting for more than 8 days; or anemia due to acute or chronic blood loss; • or pelvic discomfort caused by leiomyomata, either acute or severe or chronic lower abdominal or low back pressure or bladder pressure with urinary frequency not due to urinary tract infection.\n(§4) Exclusion criteria included pregnancy, hemoglobin <10 g/dL, current hormone therapy, rapidly enlarging uterus and FSH […]. MR images were obtained to record fibroid number, location and volume, before starting study drug and within 2 weeks of surgery. Women took ulipristal at an oral dose of 10 or 20 mg, or placebo (PLC: microcrystalline cellulose) for 3 cycles, or 90 days if they became anovulatory. The percent change in total fibroid volume was compared, Wilcoxon rank sum test and t-test were used as needed."}, "[2]": {"tested_on": "benign metastatic leiomyoma", "assay": "Compassionate treatment of benign metastatic leiomyoma (single patient)", "type": "in vivo, human", "conditions": "daily oral dose of 10-20 mg", "description": "A person with known benign metastatic leiomyoma status post abdominal surgery that confirmed multiple nodules was treated with ulipristal (daily oral dose of 10-20 mg), in a compassionate protocol. […] More importantly, their pulmonary function tests improved from 50% of predicted to 103% of predicted after 3 months of treatment. They felt better."}, "fibroid tissue [3]": {"tested_on": "fibroid tissue", "assay": "TUNEL assay and IHC for Ki67 and phospho H3 on fibroid tissue sections (apoptosis and proliferation)", "type": "in vivo, human (women)", "conditions": "compared to placebo", "description": "as §1"}, "[4]": {"tested_on": "menstrual bleeding in women with symptomatic fibroids", "assay": "Randomized placebo-controlled trial: menstrual function / bleeding", "type": "in vivo, human (women)", "conditions": "for menstrual bleeding: 3 cycles/90 days, placebo had monthly menses; for menses compared to placebo: 10 or 20 mg daily, 90 days", "text": "as §2, §3, §4\nAdditional analyses evaluated treatment-related differences in menstrual function."}, "fibroid": {"tested_on": "fibroid", "conditions": "Murphy 1995, Zeng 1998; cited from earlier work"}}}
{"compound": "17α-acetoxy-11β-[4N,N-dimethylamino-phenyl) -19-norpregna- 4,9-diene-3,20-dione [ulipristal]", "values": [{"measurement": "genes expressed differentially between ulipristal and placebo", "setting": "fibroid tissue [1]; microarray, 2 fold change cut-off and P<0.02", "result": 314, "unit": "genes"}, {"measurement": "Fold change of RT-PCR gene product, NDP", "setting": "fibroid tissue [1]; ulipristal (10 or 20 mg, 90 days) treated compared to placebo, P 0.001", "result": "−5.6"}, {"measurement": "Fold change of RT-PCR gene product, PLP1", "setting": "fibroid tissue [1]; ulipristal (10 or 20 mg, 90 days) treated compared to placebo, P 0.006", "result": 9.2}, {"measurement": "Fold change of RT-PCR gene product, Wnt5A", "setting": "fibroid tissue [1]; ulipristal (10 or 20 mg, 90 days) treated compared to placebo, P 0.008", "result": "−2.4"}, {"measurement": "Fold change of RT-PCR gene product, ZAK", "setting": "fibroid tissue [1]; ulipristal (10 or 20 mg, 90 days) treated compared to placebo, P 0.014", "result": 1.5}, {"measurement": "Fold change of RT-PCR gene product, FAIM", "setting": "fibroid tissue [1]; ulipristal (10 or 20 mg, 90 days) treated compared to placebo, P 0.017", "result": "−1.8"}, {"measurement": "Fold change of RT-PCR gene product, Clu", "setting": "fibroid tissue [1]; ulipristal (10 or 20 mg, 90 days) treated compared to placebo, P 0.019", "result": "−2.1"}, {"measurement": "Fold change of RT-PCR gene product, Bcl2", "setting": "fibroid tissue [1]; ulipristal (10 or 20 mg, 90 days) treated compared to placebo, P 0.224", "result": "−1.5"}, {"measurement": "change in total fibroid volume", "setting": "uterine fibroids; 10 mg and 20 mg groups combined, three months, placebo 6%, p=0.01", "result": -29, "unit": "%"}, {"measurement": "reduction in fibroid volume", "setting": "uterine fibroids; 10 mg oral daily", "result": 36, "unit": "%"}, {"measurement": "reduction in fibroid volume", "setting": "uterine fibroids; 20 mg oral daily", "result": 21, "unit": "%"}, {"measurement": "liver nodule", "setting": "[2]", "result": "decrease in a liver nodule"}, {"measurement": "right pleural effusion", "setting": "[2]", "result": "resolution of a right pleural effusion"}, {"measurement": "pulmonary function tests", "setting": "[2]; after 3 months of treatment, improved from 50% of predicted", "result": "103 % of predicted"}, {"measurement": "uterine fibroids", "setting": "[2]; two uterine fibroids", "result": "some decrease in two uterine fibroids"}, {"measurement": "measures of proliferation", "setting": "fibroid tissue [3]; IHC Ki67 and phospho H3, fibroids after 90 days 10 or 20 mg", "result": "decreased measures of proliferation"}, {"measurement": "measures of apoptosis", "setting": "fibroid tissue [3]; TUNEL assay, fibroids after 90 days 10 or 20 mg", "result": "increased measures of apoptosis"}, {"measurement": "menstrual bleeding", "setting": "[4]; 10 mg oral daily", "result": "single episode of menstrual bleeding"}, {"measurement": "menstrual bleeding", "setting": "[4]; 20 mg oral daily", "result": "no woman receiving 20 mg had any bleeding"}, {"measurement": "menses compared to placebo", "setting": "[4]", "result": "induced amenorrhea"}, {"measurement": "menses compared to placebo", "setting": "[4]; listed as CDB-2914", "result": "significant reduction in menses"}]}
{"compound": "CC#C[C@]1(O)CC[C@H]2[C@@H]3CCC4=CC(=O)CCC4=C3[C@@H](c3ccc(N(C)C)cc3)C[C@@]21C", "note": "[mifepristone]", "values": [{"measurement": "fibroid size", "setting": "fibroid", "result": "reduced fibroid size in a dose-dependent manner"}]}
